The compounds below were run against T1, Human T-type calcium channel (Cav 3.2) (Homo sapiens, UniProt O95180) (assay: Calcium Influx Inhibition Assay). Details: human T-type calcium channel (Cav 3.2) expressing HEK293 cells; FLIPR Calcium 4 fluorescence; 30 min compound incubation; read-out: T-type calcium channel inhibition concentration IC50.
T1 construct: Edward Perez-Reyes, University of Virginia, USA; host or cells: HEK293
Type: cell-based
Procedure: 1. Calcium Influx Inhibition Assay Human T-type calcium channel (Cav 3.2) expressing HEK293 cells were introduced from Prof. Edward Perez-Reyes, University of Virginia, USA. The calcium-sensitive fluorescent dye used was FLIPR Calcium 4 Assay Kit (Molecular Devices). To a black 96-well plate with a clear bottom coated with type I collagen, the human T-type calcium channel (Cav 3.2) expressing HEK293 cells were seeded and cultured overnight, and the culture medium was removed. A solution of the calcium-sensitive fluorescent dye was added, and the resultant plate was incubated at 37° C. in an atmosphere of 5% carbon dioxide for 30 minutes. To the plate, a diluted solution of a compound was added, and subjected to further incubation at 37° C. in an atmosphere of 5% carbon dioxide for 30 minutes. While fluorescence was continuously analyzed from the bottom with a FlexStation 3 (Molecular Devices), a calcium solution was added. […] Based on the rise value in the fluorescence from the base line, the inhibition percentage was calculated. The logarithms of compound concentrations were plotted with respect to the inhibition activities to obtain an IC50 value.

T1 sequence (O95180 whole entry): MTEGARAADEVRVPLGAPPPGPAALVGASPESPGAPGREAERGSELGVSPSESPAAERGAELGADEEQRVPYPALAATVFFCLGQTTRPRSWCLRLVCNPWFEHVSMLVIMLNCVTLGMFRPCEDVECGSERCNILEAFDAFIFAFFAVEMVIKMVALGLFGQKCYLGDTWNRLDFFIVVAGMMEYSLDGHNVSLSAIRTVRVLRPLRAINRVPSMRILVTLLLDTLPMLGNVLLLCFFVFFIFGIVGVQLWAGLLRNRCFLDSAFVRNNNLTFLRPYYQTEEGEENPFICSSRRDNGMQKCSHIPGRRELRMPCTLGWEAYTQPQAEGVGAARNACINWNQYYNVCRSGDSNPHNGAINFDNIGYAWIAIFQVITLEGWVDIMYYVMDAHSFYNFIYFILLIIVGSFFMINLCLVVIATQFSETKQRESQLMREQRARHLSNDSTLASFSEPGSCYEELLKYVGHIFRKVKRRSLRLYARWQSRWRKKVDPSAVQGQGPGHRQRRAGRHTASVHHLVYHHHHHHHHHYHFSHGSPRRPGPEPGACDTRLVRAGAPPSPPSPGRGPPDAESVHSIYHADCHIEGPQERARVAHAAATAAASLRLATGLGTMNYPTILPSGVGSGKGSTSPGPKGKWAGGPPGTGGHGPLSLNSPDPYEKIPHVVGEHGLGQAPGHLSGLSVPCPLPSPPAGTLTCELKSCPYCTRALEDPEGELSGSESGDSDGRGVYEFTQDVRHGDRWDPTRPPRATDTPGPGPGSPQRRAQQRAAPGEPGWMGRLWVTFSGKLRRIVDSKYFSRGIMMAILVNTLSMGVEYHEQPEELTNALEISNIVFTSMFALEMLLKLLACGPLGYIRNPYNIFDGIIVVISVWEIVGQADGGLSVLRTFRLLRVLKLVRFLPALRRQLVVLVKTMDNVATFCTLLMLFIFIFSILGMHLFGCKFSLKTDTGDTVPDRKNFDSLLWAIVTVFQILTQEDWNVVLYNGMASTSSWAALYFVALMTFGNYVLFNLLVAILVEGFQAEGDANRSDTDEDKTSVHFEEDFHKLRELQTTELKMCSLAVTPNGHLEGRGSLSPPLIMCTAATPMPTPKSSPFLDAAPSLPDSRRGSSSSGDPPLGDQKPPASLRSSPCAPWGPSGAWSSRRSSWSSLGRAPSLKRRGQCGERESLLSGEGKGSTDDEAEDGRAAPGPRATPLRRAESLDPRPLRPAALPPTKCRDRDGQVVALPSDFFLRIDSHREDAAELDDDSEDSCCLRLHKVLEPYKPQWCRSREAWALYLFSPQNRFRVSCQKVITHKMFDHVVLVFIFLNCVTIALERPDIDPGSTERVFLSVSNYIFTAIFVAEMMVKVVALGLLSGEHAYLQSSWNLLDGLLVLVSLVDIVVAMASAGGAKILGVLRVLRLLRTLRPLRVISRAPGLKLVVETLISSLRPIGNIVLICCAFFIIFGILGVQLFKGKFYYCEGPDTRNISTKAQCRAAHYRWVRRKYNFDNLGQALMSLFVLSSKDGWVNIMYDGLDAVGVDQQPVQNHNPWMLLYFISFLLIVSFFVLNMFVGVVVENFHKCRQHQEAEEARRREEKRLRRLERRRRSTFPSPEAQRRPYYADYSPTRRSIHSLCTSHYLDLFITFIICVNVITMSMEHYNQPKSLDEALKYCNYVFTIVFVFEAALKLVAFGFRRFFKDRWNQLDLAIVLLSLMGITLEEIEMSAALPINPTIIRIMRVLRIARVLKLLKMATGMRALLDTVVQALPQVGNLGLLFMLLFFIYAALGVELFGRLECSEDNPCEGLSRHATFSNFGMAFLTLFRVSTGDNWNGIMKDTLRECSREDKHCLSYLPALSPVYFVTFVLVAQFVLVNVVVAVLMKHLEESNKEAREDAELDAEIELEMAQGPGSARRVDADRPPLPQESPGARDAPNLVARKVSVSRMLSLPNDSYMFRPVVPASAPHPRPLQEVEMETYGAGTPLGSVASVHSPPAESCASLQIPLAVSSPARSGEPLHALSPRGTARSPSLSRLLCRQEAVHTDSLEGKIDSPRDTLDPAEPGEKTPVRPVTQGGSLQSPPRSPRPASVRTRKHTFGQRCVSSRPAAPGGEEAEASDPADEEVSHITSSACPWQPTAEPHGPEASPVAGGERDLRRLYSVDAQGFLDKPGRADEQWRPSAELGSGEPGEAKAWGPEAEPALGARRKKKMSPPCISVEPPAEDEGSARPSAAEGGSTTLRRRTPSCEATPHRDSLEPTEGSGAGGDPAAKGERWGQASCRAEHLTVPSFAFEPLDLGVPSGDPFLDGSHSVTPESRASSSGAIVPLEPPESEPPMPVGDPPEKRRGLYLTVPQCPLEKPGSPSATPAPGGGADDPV

SMILES | IC50 [µM]
Cn1cc(C2=CCN(c3cnn(Cc4ccc(C(F)(F)F)s4)c(=O)n3)C[C@@H]2O)cn1 [Synthesis Example 38, (R)-5-[5-Hydroxy-4-(1-methyl-1H-pyrazol-4-yl)-5,6-dihydropyridin-1(2H)-yl]-{[5-(trifluoromethyl)thiophen-2-yl]methyl}-1,2,4-triazin-3(2H)-one] | 0.18
O=c1nc(N2CCN(c3ccc(Cl)cc3)CC2)cnn1Cc1cnc(C(F)(F)F)s1 [Synthesis Example 20, 5-[4-(4-Chlorophenyl)piperazin-1-yl]-2-{[2-(trifluoromethyl)thiazol-5-yl]methyl}-1,2,4-triazin-3(2H)-one] | 0.19
O=c1nc(N2CCc3c([nH]c4cc(F)ccc34)C2)cnn1Cc1ccc(C(F)(F)F)s1 [Synthesis Example 9, 5-(7-Fluoro-3,4-dihydro-1H-pyrido[3,4-b]indol-2(9H)-yl)-2-{[5-(trifluoromethyl)thiophen-2-yl]methyl}-1,2,4-triazin-3(2H)-one] | 0.017
O=c1nc(N2CC=C(c3ccc(F)cc3)C(F)C2)cnn1Cc1cnc(C(F)(F)F)s1 (stereo not drawn) [Synthesis Example 22, 5-[5-Fluoro-4-(4-fluorophenyl)-5,6-dihydropyridin-(2H)-yl]-2-{[2-(trifluoromethyl)thiazol-5-yl]methyl}-1,2,4-triazin-3(2H)-one] | 0.12
O=c1nc(N2CC=C(c3ccc(F)cc3)[C@@H](O)C2)cnn1Cn1ccc(C(F)(F)C(F)(F)F)n1 [Synthesis Example 49, (R)-5-[4-(4-Fluorophenyl)-5-hydroxy-5,6-dihydropyridin-1(2H)-yl]-2-{[3-(perfluoroethyl)-1 H-pyrazol-1-yl]methyl}-1,2,4-triazin-3(2H)-one] | 0.025
O=c1nc(N2CC=C(c3ccc(F)cc3)C(F)C2)cnn1Cc1ccc(C(F)(F)F)s1 (stereo not drawn) [Synthesis Example 35, 5-[5-Fluoro-4-(4-fluorophenyl)-5,6-dihydropyridin-1(2H)-yl]-2-{[5-(trifluoromethyl)thiophen-2-yl]methyl}-1,2,4-triazin-3(2H)-one] | 0.031
O=c1nc(N2Cc3ccc(OC(F)F)cc3C(O)C2)cnn1Cc1ccc(C(F)(F)F)s1 (stereo not drawn) | 0.064
Cc1cccc(C2=CCN(c3cnn(Cc4ccc(C(F)(F)F)s4)c(=O)n3)C[C@@H]2O)n1 [Synthesis Example 31, (R)-5-[5′-Hydroxy-6-methyl-5′,6′-dihydro-(2,4′-bipyridin)-1′(2′H)-yl]-2-{[5-(trifluoromethyl)thiophen-2-yl]methyl}-1,2,4-triazin-3 (2H)-one] | 0.12
Cc1ccc(N2CCN(c3cnn(Cc4cnc(C(F)(F)F)s4)c(=O)n3)CC2)nc1 [Synthesis Example 13, 5-[4-(5-Methylpyridin-2-yl)piperazin-1-yl]-2-{[2-(trifluoromethyl)thiazol-5-yl]methyl}-1,2,4-triazine-3(2H)-one] | 6.1
Cc1ccc(N2CCN(c3cnn(Cc4ccc(C(F)(F)F)s4)c(=O)n3)CC2)nc1 [Synthesis Example 8, 5-[4-(5-methylpyridin-2-yl)piperazin-1-yl]-2-{[5-(trifluoromethyl)thiophene-2-yl]methyl}-1,2,4-triazin-3(2H)-one] | 0.21
O=c1nc(N2CC=C(c3ccc(F)cc3)[C@@H](O)C2)cnn1Cc1ccc(OS(=O)(=O)C(F)(F)F)nc1 [Synthesis Example 51, (R)-5-({5-[4-(4-Fluorophenyl)-5-hydroxy-5,6-dihydropyridin-1(2H)-yl]-3-oxo-1,2,4-triazin-2(3H)-yl}methyl)pyridin-2-yl trifluoromethanesulfonate] | 0.0056
O=c1nc(N2CCc3c([nH]c4cc(F)ccc34)C2)cnn1Cc1cnc(C(F)(F)F)s1 [Synthesis Example 14, 5-(7-Fluoro-3,4-dihydro-1H-pyrido[3,4-b]indol-2(9H)-yl)-2-{[2-(trifluoromethyl)thiazol-5-yl]methyl}-1,2,4-triazin-3(2H)-one] | 0.039

— patent US20160340322A1 (NISSAN CHEMICAL INDUSTRIES, LTD., priority 2013, published 2016)
